Assay results: US20180105548A1, “A novel compound (KS-513) isolated from Pseudolysimachion rotundum var. subintegrum, the composition comprising the same preventing or treating allergic disease, inflammatory disease, asthma or chronic obstructive pulmonary disease and the use thereof” (priority 2015, published 2018)

System: TNF-alpha
Assay: TNF-alpha production in LPS-treated RAW264.7 cell (ELISA)
Format: cell-based, mouse
Settings: for TNF-alpha production (relative % comparing with LPS treatment group) / TNF-alpha production, Inhibitory ratio (%): LPS 1 μg/mL, 24 hours
Method: RAW264.7 cell was inoculated into 96 well plates in the concentration of 1×10^5 cell/well to incubate for 18 hours. Various concentration of KS-513 compound (2.5, 5, 10 and 20 μM) was pre-treated therewith and 1 μg/mL of LPS (L6529, Sigma) was added thereto to incubate for 24 hours. The level of inflammatory cytokines such as IL-1beta, IL-6, TNF-alpha etc in the cell medium was determined by ELISA kit (IL-1beta:559603, IL-6:555240, TNF-alpha:5558534, BD) and the result was shown in FIG. 5 and Table 7-9.

Structure (SMILES): CO[C@@H]1C[C@H]2[C@H](OC(=O)c3ccc(O)cc3)[C@@H]3O[C@]3(CO)[C@H]2[C@H](O[C@@H]2O[C@H](CO)[C@@H](O)C(O)[C@H]2O)O1 (stereo partly drawn) [KS-513, (1aS, 1bS,2S,4S,5aR,6S,6aS)-1a-(hydroxymethyl)-4-methoxy-2-(((2S,3R,5S,6R)-3,4,5-trihydroxy-6-(hydroxymethyl)tetrahydro-2H-pyran-2-yl)oxy)octahydrooxireno[2′,3′:4,5]cyclopenta[1,2-c]pyran-6-yl 4-hydroxybenzoate]
- TNF-alpha production (relative % comparing with LPS treatment group) (2.5 μM): 97.38 ± 0.58%
- TNF-alpha production, Inhibitory ratio (%) (2.5 μM): 2.62%
- TNF-alpha production (relative % comparing with LPS treatment group) (5 μM): 86.12 ± 1.14%
- TNF-alpha production, Inhibitory ratio (%) (5 μM): 13.88%
- TNF-alpha production (relative % comparing with LPS treatment group) (10 μM): 68.03 ± 2.51%
- TNF-alpha production, Inhibitory ratio (%) (10 μM): 31.97%
- TNF-alpha production (relative % comparing with LPS treatment group) (20 μM): 58.44 ± 3.50%
- TNF-alpha production, Inhibitory ratio (%) (20 μM): 41.56%
- level of produced TNF-alpha (vs LPS treatment group (1 μg/ml), FIG. 5): reduced in a dose dependent manner
